PMC7756341, “Liposomal FRET Assay Identifies Potent Drug‐Like Inhibitors of the Ceramide Transport Protein (CERT)” (Chemistry (Weinheim an Der Bergstrasse, Germany), 2020)
Values joined by “and” are separate entries in the source; they are usually repeats but may differ in a detail not shown here. Equal values may be shown once. Read-outs that look alike come from different tables or passages of the source.

Molecular target: T1, START domain of human CERT (Homo sapiens, UniProt Q9Y5P4)
T1 construct: The START domain of hCERT was expressed has a His6-SUMO fusion protein [2]; His6-SUMO (N, cleaved yes); made in house; host or cells: E. coli BL21(DE3), pQE-based plasmid
T1 sequence (Q9Y5P4 347-598 isoform Q9Y5P4-2 limits assumed): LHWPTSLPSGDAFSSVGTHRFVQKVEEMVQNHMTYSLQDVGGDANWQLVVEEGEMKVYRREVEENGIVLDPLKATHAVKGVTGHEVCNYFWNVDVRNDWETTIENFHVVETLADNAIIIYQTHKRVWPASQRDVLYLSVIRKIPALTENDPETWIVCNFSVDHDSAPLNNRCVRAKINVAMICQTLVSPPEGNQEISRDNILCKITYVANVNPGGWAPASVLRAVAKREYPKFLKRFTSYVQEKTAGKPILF
Test: Microscale thermophoresis (MST) binding assay
Settings: for Kd: fluorescently labeled START domain 50 nM
Protocol: 1.2 Expression and purification of the START domain of human CERT
The START domain of hCERT was expressed has a His6-SUMO fusion protein [2]. The pQE-based plasmid harboring the genetic information of His6-SUMO-START was transformed into E. coli BL21(DE3) by following the standard heat shock method. Colonies were grown on carbenicillin ([…]) and 1% glucose supplemented Luria–Bertani (LB) agar plates. A single colony was used to inoculate 20 ml of pre-culture 1 % of which was then used to inoculate 500 ml of LB medium ([…] carbenicillin, 10 mM glucose, 37 °C, 160 rpm). Upon reaching OD600 = 0.8, the culture was induced with 500 μM IPTG (isopropyl-β-d-thiogalactoside) and cells were incubated for 16 h with continuous shaking at 160 rpm. The cells were harvested by centrifugation […]
For purification of the protein, the cell pellet was re-suspended in lysis buffer (25 mM Tris/HCl, pH 7.4, 270 mM Sucrose, 1% Triton X-100, 2.5 mM dithiothreitol (DTT), Protease/Phosphatase inhibitor) on ice. Cells were disrupted using an EmulsiFlex-C3 instrument (Avestin Inc.; CANADA). The lysate was cleared by centrifugation, and the supernatant was loaded onto a Ni– NTA column (Qiagen). The protein was washed with loading buffer pH 7.4 (50 mM Na2HPO4, 50 mM NaH2PO4, 150 mM NaCl, 2,5 mM DTT) containing 20 mM imidazole and eluted with elution […]
mM imidazole. Fractions containing the protein of interest according to SDS-PAGE were pooled and digested with Ubiquitin-like-protein specific protease 1 (ULP1). The by-products (His6-SUMO and ULP1) were removed in a second IMAC step, and the target protein was subjected to a final purification by gel filtration on a superdex 200 16/600 prep grade column equilibrated with loading buffer pH 7.4 (50 mM Na2HPO4, 50 mM NaH2PO4, 150 mM NaCl, 2.5 mM DTT). The monomeric form of the START domain of hCERT was collected. The final concentration of the protein was determined via UV-Visible spectrophotometry (Varian Cary 50) at 280 nm using a calculated extinction coefficient of 50420 (M-1 cm-1).
4. Microscale Thermophoresis (MST) assays
4.1 Labeling of the START domain with a fluorophore dye
In order to perform MST assays, the START domain was coupled with a commercially available fluorophore dye (NT647 (NanoTemper Technologies, Munich, Germany)) following standard procedures provided in the manufacturer's protocol. Briefly, 10 µM of the START domain was labeled with 30 µM of the fluorophore in NHS-LB buffer kept in the dark for 30min. Any excess of the dye was removed via size exclusion chromatography on a Sephadex G25 column (GE Healthcare). The concentration of the labeled protein was determined by UV-VIS spectrophotometry at 280 nm (Varian Cary 50).
4.2 Preparation of the dilution series and MST assay
Dilution series of small-molecule ligands were prepared from stock solutions in DMSO. In case of 6B11 and 17C9, ligands were then diluted into MST buffer (50 mM Na-phosphate, 150 mM NaCl, 2.5 mM DTT, 0.05% Tween-20) to a concentration 2-fold higher than the maximum concentration used in the assay. The concentration of DMSO was kept constant in all dilutions. 16 dilutions of the ligands were prepared in micro reaction tubes by successive 1:1 dilutions with […]
solubility problems. To this end, first, a dilution series in pure DMSO was generated. The individual dilutions were then further diluted 20-fold with MST buffer to a ligand concentration 2-fold higher than its final concentration. As a final step, 10 μL of the fluorescently labeled START domain was added to all reaction tubes containing 10 μL of ligand solution. The final concentration of START domain was 50 nM. After mixing, 2-3 μL of the reaction mixture were filled into standard capillaries (Nanotemper Technologies).
MST measurements were performed with a Monolith NT.115 instrument (Nanotemper Technologies). All ligands were measured as triplicates. 40% MST excitation power was set and, depending on the labeled protein concentration used in the assay, between 5% to 20% of LED […]

SMILES | Kd (read-out: KD) | other results
CCCC(=O)OCOC(=O)C1=C(C)NC(C)=C(C(=O)OC)C1c1cccc(Cl)c1Cl (stereo not drawn) [6B11, Clevidipine butyrate] | ~5 µM and 2.32 µM | 
CC1=NN(c2ccc(C)c(C)c2)C(=O)/C1=N\Nc1cccc(-c2cccc(C(=O)O)c2)c1O [17C9, Eltrombopag] |  | binding confirmed by MST (labeled START domain): confirmed binding for all compounds except 17C9
Cc1cc(C2=NOC(c3cc(Cl)cc(Cl)c3)(C(F)(F)F)C2)ccc1C(=O)NCC(=O)NCC(F)(F)F (stereo not drawn) [20D5, Fluralaner] |  | Kd (KD): ~150 µM and 153 µM

The next lines start with results.

Kd (read-out: KD) | SMILES | other results
~5 µM and 6.77 µM | O=C(NC1CCN(CCCCC2(C(=O)NCC(F)(F)F)c3ccccc3-c3ccccc32)CC1)c1ccccc1-c1ccc(C(F)(F)F)cc1 [8E8, lomitapide] | 
0.0415 µM | CCCCCCCCCCCC(=O)NC(CO)CC(O)c1ccccc1 (stereo not drawn) [HPA-12, N-(3Hydroxy-1-hydroxymethyl-3-phenylpropyl)-dodecamide] | Kd (listed as HPA‐12, read-out: KD): ~0.04 µM
